Measured values taken from ChEMBL document CHEMBL2390896, “Synthesis, enzymatic stability and in vitro cytostatic effect of Daunorubicin-GnRH-III derivative dimers” (Bioorg Med Chem Lett, 2013).

Key:
[1] = Prodrug conversion in rat liver lysosomal homogenate assessed as H-Lys(Dau=Aoa-Cys)-OH formation at 0.1 ug/uL after 24 hrs by LC-MS analysis; assay type: ADME, tissue-based
[2] = tested on: MCF7; experiment: Cytostatic activity against human MCF7 cells after 72 hrs by MTT assay; assay type: functional, cell-based; conditions: MCF7, 72 h
[3] = Proteolytic stability in Tris-HCl/CaCl2 buffer at pH 7.8 in presence of alpha-chymotrypsin assessed as compound degradation at 0.1 ug/uL after 6 hrs by mass spectrometry; assay type: ADME; conditions: pH 7.8, 6 h
[4] = Proteolytic stability in Tris-HCl/CaCl2 buffer at pH 7.8 in presence of alpha-chymotrypsin assessed as intact parent compound at 0.1 ug/uL measured after 24 hrs by mass spectrometry; assay type: ADME; conditions: pH 7.8, 24 h
[5] = Proteolytic stability in Tris-HCl/CaCl2 buffer at pH 7.8 in presence of alpha-chymotrypsin assessed as cleavage of compound at -3Trp-4Xxx- in second arm of dimer at 0.1 ug/uL after 24 hrs by mass spectrometry; assay type: ADME; conditions: pH 7.8, 24 h
[6] = Proteolytic stability in Tris-HCl/CaCl2 buffer at pH 7.8 in presence of alpha-chymotrypsin assessed as cleavage of compound at -3Trp-4Xxx- in second arm of dimer at 0.1 ug/uL after 4 hrs by mass spectrometry; assay type: ADME; conditions: pH 7.8, 4 h
[7] = Proteolytic stability in Tris-HCl/CaCl2 buffer at pH 7.8 in presence of alpha-chymotrypsin assessed as cleavage of compound at -3Trp-4Xxx- in one arm of dimer at 0.1 ug/uL measured after 1 hr by mass spectrometry; assay type: ADME; conditions: pH 7.8, 1 h
[8] = Proteolytic stability in 0.1 % formic acid at pH 1.8 in presence of pepsin after 24 hrs by mass spectrometry; assay type: ADME; conditions: isolated protein, pH 1.8, 24 h
[9] = Proteolytic stability in NH4HCO3 buffer at pH 8.0 in presence of trypsin at 0.1 ug/uL after 24 hrs by mass spectrometry; assay type: ADME; conditions: isolated protein, pH 8, 24 h
[10] = Prodrug conversion in rat liver lysosomal homogenate assessed as free daunorubicin at 0.1 ug/uL after 24 hrs by LC-MS analysis; assay type: ADME, tissue-based
[11] = Chemical stability of the compound in aqueous solution after 24 hrs by LC-MS analysis; assay type: physicochemical; conditions: buffer
[12] = Prodrug conversion in rat liver lysosomal homogenate assessed as {[H-Lys(Dau=Aoa-Cys)-OH] [H-Lys(Dau=Aoa-Cys)P-OH]} formation at 0.1 ug/uL after 24 hrs by LC-MS analysis; assay type: ADME, tissue-based
[13] = tested on: Serum; experiment: Metabolic stability in human serum at 10 uM after 24 hrs by LC-MS analysis; assay type: ADME, cell-free
[14] = Drug metabolism in rat liver lysosomal homogenate assessed as [H-Lys(Dau=Aoa-Cys)-OH]2 formation at 0.1 ug/uL after 24 hrs by LC-MS analysis; assay type: ADME, tissue-based; conditions: tissue homogenate

Row | Drug metabolism [1] | IC50 [2] [µM] | Stability [3] | Stability [4] | Stability [5] | Stability [6] | Stability [7] | Stability [8] | Stability [9] | Drug metabolism [10] | Stability [11] | Drug metabolism [12] | Stability [13] | Drug metabolism [14] | SMILES
1 | Active | 10.6 | – | – | – | – | – | – | – | – | – | – | – | – | COc1cccc2c1C(=O)c1c(O)c3c(c(O)c1C2=O)C[C@@](O)(/C(C)=N/OCC(=O)NCCCC[C@H](NC(=O)[C@H](Cc1c[nH]c2ccccc12)NC(=O)[C@H](CC(=O)O)NC(=O)[C@H](Cc1cnc[nH]1)NC(=O)[C@H](CO)N(C)C(=O)[C@H](Cc1c[nH]c2ccccc12)NC(=O)[C@H](Cc1cnc[nH]1)NC(=O)[C@@H]1CCC(=O)N1)C(=O)N1CCC[C@H]1C(=O)NCC(N)=O)C[C@@H]3O[C@H]1C[C@H](N)[C@H](O)[C@H](C)O1
2 | – | 4.1 | Unstable | Stable | Stable | Stable | Unstable | Stable | Stable | Not Active | Stable | Active | Stable | – | COc1cccc2c1C(=O)c1c(O)c3c(c(O)c1C2=O)C[C@@](O)(/C(C)=N/OCC(=O)N[C@@H](CSSC[C@H](NC(=O)CO/N=C(\C)[C@]1(O)Cc2c(O)c4c(c(O)c2[C@@H](O[C@H]2C[C@H](N)[C@H](O)[C@H](C)O2)C1)C(=O)c1c(OC)cccc1C4=O)C(=O)NCCCC[C@H](NC(=O)[C@H](Cc1c[nH]c2ccccc12)NC(=O)[C@H](CC(=O)O)NC(=O)[C@H](Cc1cnc[nH]1)NC(=O)[C@H](CO)NC(=O)[C@H](Cc1c[nH]c2ccccc12)NC(=O)[C@H](Cc1cnc[nH]1)NC(=O)[C@@H]1CCC(=O)N1)C(=O)N1CCC[C@H]1C(=O)NCC(N)=O)C(=O)NCCCC[C@H](NC(=O)[C@H](Cc1c[nH]c2ccccc12)NC(=O)[C@H](CC(=O)O)NC(=O)[C@H](Cc1cnc[nH]1)NC(=O)[C@H](CO)NC(=O)[C@H](Cc1c[nH]c2ccccc12)NC(=O)[C@H](Cc1cnc[nH]1)NC(=O)[C@@H]1CCC(=O)N1)C(=O)N1CCC[C@H]1C(=O)NCC(N)=O)C[C@@H]3O[C@H]1C[C@H](N)[C@H](O)[C@H](C)O1
3 | – | 6.2 | Unstable | Stable | Stable | Stable | Unstable | Stable | Stable | – | Stable | – | Stable | Active | COc1cccc2c1C(=O)c1c(O)c3c(c(O)c1C2=O)C[C@@](O)(/C(C)=N/OCC(=O)N[C@@H](CSSC[C@H](NC(=O)CO/N=C(\C)[C@]1(O)Cc2c(O)c4c(c(O)c2[C@@H](O[C@H]2C[C@H](N)[C@H](O)[C@H](C)O2)C1)C(=O)c1c(OC)cccc1C4=O)C(=O)NCCCC[C@H](NC(=O)[C@H](Cc1c[nH]c2ccccc12)NC(=O)[C@H](CC(=O)O)NC(=O)[C@H](Cc1cnc[nH]1)NC(=O)[C@H](CO)N(C)C(=O)[C@H](Cc1c[nH]c2ccccc12)NC(=O)[C@H](Cc1cnc[nH]1)NC(=O)[C@@H]1CCC(=O)N1)C(=O)N1CCC[C@H]1C(=O)NCC(N)=O)C(=O)NCCCC[C@H](NC(=O)[C@H](Cc1c[nH]c2ccccc12)NC(=O)[C@H](CC(=O)O)NC(=O)[C@H](Cc1cnc[nH]1)NC(=O)[C@H](CO)N(C)C(=O)[C@H](Cc1c[nH]c2ccccc12)NC(=O)[C@H](Cc1cnc[nH]1)NC(=O)[C@@H]1CCC(=O)N1)C(=O)N1CCC[C@H]1C(=O)NCC(N)=O)C[C@@H]3O[C@H]1C[C@H](N)[C@H](O)[C@H](C)O1
